Measured values taken from publication PMC3188286 (Journal of Medicinal Chemistry, 2011).

How the values were obtained:
T. brucei TryR [1] = biological target: T1, T. brucei TryR (Trypanosoma brucei brucei, UniProt P39051); experiment: TryR enzyme assay; assay type: biochemical, Trypanosoma brucei brucei strain S427; details: for improvement in TryR potency with respect to ester 1c: vs 1c IC50 9.4 μM; for ligand efficiency: from T. brucei TryR IC50; for fold less active than 9a against TryR: vs 9a
T1 sequence (P39051 whole entry): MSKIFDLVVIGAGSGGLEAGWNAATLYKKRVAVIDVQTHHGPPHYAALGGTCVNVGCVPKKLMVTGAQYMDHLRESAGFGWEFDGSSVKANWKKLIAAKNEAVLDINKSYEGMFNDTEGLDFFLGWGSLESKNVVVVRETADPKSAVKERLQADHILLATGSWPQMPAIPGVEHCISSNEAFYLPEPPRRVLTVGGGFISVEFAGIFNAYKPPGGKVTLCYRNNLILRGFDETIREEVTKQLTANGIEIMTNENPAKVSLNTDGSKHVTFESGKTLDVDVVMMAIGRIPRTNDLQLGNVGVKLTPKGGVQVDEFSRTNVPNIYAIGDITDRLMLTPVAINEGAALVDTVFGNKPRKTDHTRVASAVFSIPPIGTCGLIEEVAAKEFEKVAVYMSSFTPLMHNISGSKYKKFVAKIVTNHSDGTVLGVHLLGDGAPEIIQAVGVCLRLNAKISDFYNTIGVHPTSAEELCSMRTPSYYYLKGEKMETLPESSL

[2] = system: bloodstream form T. brucei brucei; experiment: Resazurin fluorescence-based cell viability assay, T. brucei; design: species or system Trypanosoma brucei brucei
[3] = Resazurin viability counter-screen, MRC5 cells; assay type: cell-based; details: human, MRC-5 cells
T. brucei TryR [4] = biological target: T1, T. brucei TryR; experiment: Mode of inhibition studies; assay type: biochemical; details: for mode of inhibition: with respect to trypanothione disulfide

CC1=Nc2ccc(Cl)cc2C(c2ccccc2)N1Cc1ccccc1 (racemic) [6a, (R/S)-3-Benzyl-6-chloro-2-methyl-4-phenyl-3,4-dihydroquinazoline]
improvement in TryR potency with respect to ester 1c (T. brucei TryR [1]): 10 fold

CC1=Nc2ccc(Cl)cc2C(c2ccccc2)N1CCN1CCCCC1 (racemic) [9a, (R/S)-6-Chloro-2-methyl-4-phenyl-3-(2-(piperidin-1-yl)ethyl)-3,4-dihydroquinazoline]
selectivity (MRC5 EC50/T. brucei EC50) ([2]; ratio, fold): 11

CC1=Nc2ccc(-c3ccccc3)cc2C(c2ccccc2)N1CCN1CCCCC1 (racemic) [16a, (R/S)-2-Methyl-4,6-diphenyl-3-(2-(piperidin-1-yl)ethyl)-3,4-dihydroquinazoline]
fold more potent against T. brucei cells than against TryR [2]: 10 fold

COC(=O)CN1C(C)=Nc2ccc(Br)cc2C1c1ccccc1 (stereo not shown) [1a]
reduction in potency between biochemical (TryR IC50) and cell assay (T. brucei EC50) [2]: > 5 fold
difference in activity between T. cruzi and T. brucei TryR (T. brucei TryR [1]): < 3 fold
EC50 [3]: > 50 µM
Ki (T. brucei TryR [4]): 920 ± 60 nM
mode of inhibition (T. brucei TryR [4]): linear competitive inhibitor

COC(=O)CN1C(C)=Nc2ccc(C)cc2C1c1ccccc1 (stereo not shown) [1b]
difference in activity between T. cruzi and T. brucei TryR (T. brucei TryR [1]): < 3 fold

COC(=O)CN1C(C)=Nc2ccc(Br)cc2C1c1ccccc1Cl (stereo not shown) [1d]
TryR IC50 (T. brucei TryR [1]; recombinant T. brucei TryR, mean of at least two replicates): inactive

CC1=Nc2ccc(Cl)cc2C(c2ccccc2)N1Cc1ccccc1F (stereo not shown) [6d]
improvement in TryR potency with respect to ester 1c (T. brucei TryR [1]): 10 fold

CC1=Nc2ccc(Cl)cc2C(c2ccccc2)N1Cc1cccc(N(C)C)c1 (stereo not shown) [6g]
improvement in TryR potency with respect to ester 1c (T. brucei TryR [1]): 10 fold

CCN1C(C)=Nc2ccc(Cl)cc2C1c1ccccc1 (stereo not shown) [6k]
ligand efficiency (T. brucei TryR [1]): > 0.3 kcal mol^–1 per non-H atom

CC1=Nc2ccc(Cl)cc2C(c2ccccc2)N1CCN1CCN(C)CC1 (stereo not shown) [9c]
ligand efficiency (T. brucei TryR [1]): 0.31 kcal mol^–1 per non-H atom
improvement in TryR potency with respect to ester 1c (T. brucei TryR [1]): 10 fold

CC1=Nc2ccc(Cl)cc2C(c2ccccc2)N1CCNC(=O)c1ccco1 (stereo not shown) [11e]
improvement in TryR potency with respect to ester 1c (T. brucei TryR [1]): 11 fold
mode of inhibition (T. brucei TryR [4]): mixed mode of inhibition

CC1=Nc2ccc(Cl)cc2C(c2ccccc2)N1CCN1CCN(C(=O)c2ccco2)CC1 (stereo not shown) [13e]
ligand efficiency (T. brucei TryR [1]): 0.27 kcal mol^–1 per non-H atom
improvement in TryR potency with respect to ester 1c (T. brucei TryR [1]): 22 fold

CC1=Nc2ccc(Cl)cc2C(c2ccccc2)N1CCN1CCN(C(=O)CN(C)C)CC1 (stereo not shown) [13h]
mode of inhibition (T. brucei TryR [4]): mixed mode of inhibition

CC1=Nc2ccccc2C(c2ccccc2)N1CCN1CCCCC1 (stereo not shown) [15b]
fold less potent against T. brucei than C6-halogen analogues 9a, 15c, 15d [2]: ~10 fold

CC1=Nc2ccc(Br)cc2C(c2ccccc2)N1CCN1CCCCC1 (stereo not shown) [15c, 6-bromo-2-methyl-4-phenyl-3-(2-(piperidin-1-yl)ethyl)-3,4-dihydroquinazoline]
fold more potent against TryR than C6-phenyl analogue 16a (T. brucei TryR [1]): 10 fold

CC1=Nc2ccc(-c3ccco3)cc2C(c2ccccc2)N1CCN1CCCCC1 (stereo not shown) [16c]
fold more potent against TryR than other C6-aryls (16a,b,e,f) (T. brucei TryR [1]): 5- to 10 fold

CC1=Nc2ccc(-c3ccsc3)cc2C(c2ccccc2)N1CCN1CCCCC1 (stereo not shown) [16d]
fold more potent against TryR than other C6-aryls (16a,b,e,f) (T. brucei TryR [1]): 5- to 10 fold

CC1=Nc2ccc(Cl)cc2C(c2ccc(C)cc2)N1CCCN(C)C (stereo not shown) [29a, 3-(6-Chloro-2-methyl-4-p-tolylquinazolin-3(4H)-yl)-N,N-dimethylpropan-1-amine]
ligand efficiency (T. brucei TryR [1]): > 0.3 kcal mol^–1 per non-H atom
improvement in TryR potency cf. 9e (T. brucei TryR [1]; vs 9e IC50 1.0 μM): 4 fold
TryR Ki′ (T. brucei TryR [4]; mixed inhibition, enzyme–T[S]2 complex): 1.46 µM
mode of inhibition (T. brucei TryR [4]): linear mixed

COc1cccc(C2c3cc(Cl)ccc3N=C(C)N2CCN2CCCCC2)c1 (stereo not shown) [29d]
fold less active than 9a against TryR (T. brucei TryR [1]): 15 fold

CC1=Nc2ccc(Cl)cc2C(C2CCCCC2)N1CCN1CCCCC1 (stereo not shown) [29f]
fold less active than 9a against TryR (T. brucei TryR [1]): 15 fold

N=C(N)c1ccc(OCCCCCOc2ccc(C(=N)N)cc2)cc1 [Pentamidine, pentamidine, reference compound]
EC50 ([2]; Trypanosoma brucei, read-out: T. brucei EC50 (positive control)): 5 nM
